In ChEMBL document CHEMBL4417633, “Inhibitory polypeptides specific to WNT inhibitors” (2017) one finds inhibition and IC50 data, which are given here for 7 compounds.

Molecules are shown by their SMILES. The source made the active and inactive calls. The calls are words filed in the database; no cut-off is given here. Where a SMILES comes first, the peptide text is derived from it.

For orientation: IC50 means the concentration that inhibits the measured activity by half.

Assay [1] addresses T1, Dickkopf WNT-signaling pathway inhibitor 1 (Rattus norvegicus) (UniProt A6I0Z0).
T1 sequence (whole entry): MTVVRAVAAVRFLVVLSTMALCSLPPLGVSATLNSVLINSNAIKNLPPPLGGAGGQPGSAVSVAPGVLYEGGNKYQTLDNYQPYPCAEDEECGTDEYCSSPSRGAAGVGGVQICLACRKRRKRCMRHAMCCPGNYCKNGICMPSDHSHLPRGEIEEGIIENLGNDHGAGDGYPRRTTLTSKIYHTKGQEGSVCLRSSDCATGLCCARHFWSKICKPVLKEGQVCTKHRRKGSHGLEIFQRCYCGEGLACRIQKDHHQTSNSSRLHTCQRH
In words: Inhibition of biotin-labeled rat recombinant DKK1 assessed as reduction in DKK1 interaction with LRP-6/Fc incubated overnight by chemiluminescence based Alpha-screen assay.

The target in assay [2] is T2, Dickkopf-related protein 1 (Homo sapiens, UniProt O94907).
T2 sequence (O94907 whole entry): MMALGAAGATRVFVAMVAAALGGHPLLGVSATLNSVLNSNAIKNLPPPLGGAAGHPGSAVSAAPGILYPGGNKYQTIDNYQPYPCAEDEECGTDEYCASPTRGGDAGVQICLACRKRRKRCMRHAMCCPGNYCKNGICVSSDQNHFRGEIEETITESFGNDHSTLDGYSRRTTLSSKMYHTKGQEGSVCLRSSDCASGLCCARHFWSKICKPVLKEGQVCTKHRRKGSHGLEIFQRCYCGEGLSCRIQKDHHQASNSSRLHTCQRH
The experiment in a line: Inhibition of human DKK1 in MC3T3E1/TetON-Wnt1/STF-Luc#5 cells assessed as DKK1 neutralizing activity by Wnt1-induced TCF/LEF luciferase reporter gene assay.

For assay [3], the target named is T3, Dickkopf-related protein 1 (Homo sapiens) (UniProt O94907).
T3 sequence (whole entry): T2 sequence (O94907 whole entry)
In words: Inhibition of biotin-labeled human recombinant DKK1 assessed as reduction in DKK1 interaction with LRP-6/Fc incubated overnight by chemiluminescence based Alpha-screen assay. (In general: In Alpha technology, singlet oxygen from a donor bead excites a nearby acceptor bead.)

As to `CSCC[C@H](NC(=O)[C@@H]1CCCN1C(=O)[C@H](Cc1ccc(O)cc1)NC(=O)[C@H](CS)NC(=O)[C@H](Cc1cnc[nH]1)NC(=O)[C@@H]1CCCN1C(=O)[C@H](Cc1cnc[nH]1)NC(=O)[C@H](CC(N)=O)NC(=O)[C@H](CCCNC(=N)N)NC(=O)[C@H](CS)NC(=O)[C@H](CCC(N)=O)NC(=O)[C@H](Cc1ccccc1)NC(=O)[C@H](Cc1ccc(O)cc1)NC(=O)[C@H](CO)NC(=O)[C@H](CCC(=O)O)NC(=O)[C@@H]1CCCN1C(=O)[C@@H](N)CS)C(=O)N[C@@H](CCC(=O)O)C(=O)N[C@@H](Cc1c[nH]c2ccccc12)C(=O)N[C@@H](CCCNC(=N)N)C(=O)N[C@@H](CS)C(=O)N[C@@H](CC(=O)O)C(=O)NCC(=O)N[C@@H](Cc1ccccc1)C(=O)N[C@@H](CCC(=O)O)C(=O)N[C@@H](CC(=O)O)C(=O)N[C@@H](CS)C(=O)N[C@H](C(=O)N[C@@H](CC(=O)O)C(=O)NCC(=O)N[C@@H](CO)C(=O)N[C@@H](CC(=O)O)C(=O)N[C@@H](CCC(=O)O)C(=O)N[C@@H](CC(C)C)C(=O)N[C@@H](CC(=O)O)C(=O)N[C@@H](CS)C(=O)NCC(=O)NCC(=O)NCC(=O)NCC(=O)O)C(C)C` (H-CPESYFQCRNHPHCYPMEWRCDGFEDCVDGSDELDCGGGG-OH), the inhibition entry in assay [1] and in assay [3] was “Active” throughout. The IC50 in assay [2] lay within 0.8 to 3 nM.

As for `CC[C@H](C)[C@H](NC(=O)[C@H](CS)NC(=O)[C@H](CC(=O)O)NC(=O)[C@@H]1CCCN1C(=O)[C@H](Cc1ccccc1)NC(=O)CNC(=O)[C@H](CC(=O)O)NC(=O)[C@H](CS)NC(=O)[C@H](CCCNC(=N)N)NC(=O)[C@H](Cc1c[nH]c2ccccc12)NC(=O)[C@H](CCC(=O)O)NC(=O)[C@H](CCSC)NC(=O)[C@@H]1CCCN1C(=O)[C@H](Cc1ccc(O)cc1)NC(=O)[C@H](CS)NC(=O)[C@H](Cc1cnc[nH]1)NC(=O)[C@@H]1CCCN1C(=O)[C@H](Cc1cnc[nH]1)NC(=O)[C@H](CC(N)=O)NC(=O)[C@H](CCCNC(=N)N)NC(=O)[C@H](CS)NC(=O)[C@H](CCCCN)NC(=O)[C@H](Cc1ccccc1)NC(=O)[C@H](Cc1ccc(O)cc1)NC(=O)[C@H](CO)NC(=O)[C@H](C)NC(=O)[C@@H]1CCCN1C(=O)[C@@H](N)CS)C(=O)N[C@@H](CC(=O)O)C(=O)NCC(=O)N[C@@H](CO)C(=O)N[C@@H](CC(=O)O)C(=O)N[C@@H](CCC(=O)O)C(=O)N[C@H](C(=O)N[C@@H](C)C(=O)N[C@@H](CS)C(=O)NCC(=O)NCC(=O)NCC(=O)NCC(=O)O)[C@H](C)O`, the inhibition result in assay [1] and in assay [3] was “Active” each time. Further, the half-inhibitory concentration (IC50) in assay [2] fell in the range of 0.8 to 3 nM.

Consider `CC[C@H](C)[C@H](NC(=O)[C@H](CS)NC(=O)[C@H](CC(=O)O)NC(=O)[C@@H]1CCCN1C(=O)[C@H](Cc1ccccc1)NC(=O)CNC(=O)[C@H](CC(=O)O)NC(=O)[C@H](CS)NC(=O)[C@H](CCCNC(=N)N)NC(=O)[C@H](Cc1c[nH]c2ccccc12)NC(=O)[C@H](CCC(=O)O)NC(=O)[C@H](CCSC)NC(=O)[C@@H]1CCCN1C(=O)[C@H](Cc1ccc(O)cc1)NC(=O)[C@H](CS)NC(=O)[C@H](Cc1cnc[nH]1)NC(=O)[C@@H]1CCCN1C(=O)[C@H](CC(C)C)NC(=O)[C@H](CC(N)=O)NC(=O)CNC(=O)[C@H](CS)NC(=O)[C@H](CCC(N)=O)NC(=O)[C@H](Cc1ccccc1)NC(=O)[C@H](Cc1ccc(O)cc1)NC(=O)[C@H](CO)NC(=O)[C@H](C)NC(=O)[C@@H]1CCCN1C(=O)[C@@H](N)CS)C(=O)N[C@@H](CC(=O)O)C(=O)NCC(=O)N[C@@H](CO)C(=O)N[C@@H](CC(=O)O)C(=O)N[C@@H](CCC(=O)O)C(=O)N[C@@H](CCCCN)C(=O)NCC(=O)N[C@@H](CS)C(=O)NCC(=O)NCC(=O)NCC(=O)NCC(=O)O` (H-CPASYFQCGNLPHCYPMEWRCDGFPDCIDGSDEKGCGGGG-OH), for which the inhibition result in assay [1] and in assay [3] was “Active” in each case. For the same compound, the 50% inhibitory concentration (IC50) in assay [2] lay within 0.8 to 3 nM.

Consider `CSCC[C@H](NC(=O)[C@@H]1CCCN1C(=O)[C@H](Cc1ccc(O)cc1)NC(=O)[C@H](CS)NC(=O)[C@H](Cc1cnc[nH]1)NC(=O)[C@@H]1CCCN1C(=O)[C@H](Cc1cnc[nH]1)NC(=O)[C@H](CC(N)=O)NC(=O)[C@H](CCCNC(=N)N)NC(=O)[C@H](CS)NC(=O)[C@H](CCC(N)=O)NC(=O)[C@H](Cc1ccccc1)NC(=O)[C@H](Cc1ccc(O)cc1)NC(=O)[C@H](CO)NC(=O)[C@H](CCC(=O)O)NC(=O)[C@@H]1CCCN1C(=O)[C@@H](N)CS)C(=O)N[C@@H](CCC(=O)O)C(=O)N[C@@H](Cc1c[nH]c2ccccc12)C(=O)N[C@@H](CCCNC(=N)N)C(=O)N[C@@H](CS)C(=O)N[C@@H](CC(=O)O)C(=O)NCC(=O)N[C@@H](Cc1ccccc1)C(=O)N1CCC[C@H]1C(=O)N[C@@H](CC(=O)O)C(=O)N[C@@H](CS)C(=O)N[C@H](C(=O)N[C@@H](CC(=O)O)C(=O)NCC(=O)N[C@@H](CO)C(=O)N[C@@H](CC(=O)O)C(=O)N[C@@H](CCC(=O)O)C(=O)N[C@@H](CC(C)C)C(=O)N[C@@H](CC(=O)O)C(=O)N[C@@H](CS)C(=O)NCC(=O)NCC(=O)NCC(=O)NCC(=O)O)C(C)C` (H-CPESYFQCRNHPHCYPMEWRCDGFPDCVDGSDELDCGGGG-OH), for which the inhibition result in assay [1] and in assay [3] was “Active” throughout. Moreover, the IC50 in assay [2] lay within 0.8 to 3 nM.

Take `CSCC[C@H](NC(=O)[C@@H]1CCCN1C(=O)[C@H](Cc1cnc[nH]1)NC(=O)[C@H](CS)NC(=O)[C@@H]1CCCN1C(=O)[C@@H]1CCCN1C(=O)[C@H](CC(=O)O)NC(=O)[C@H](CC(N)=O)NC(=O)[C@H](CCCNC(=N)N)NC(=O)[C@H](CS)NC(=O)[C@H](CCC(N)=O)NC(=O)[C@H](Cc1ccccc1)NC(=O)[C@H](Cc1ccc(O)cc1)NC(=O)[C@@H]1CCCN1C(=O)[C@H](C)NC(=O)[C@@H]1CCCN1C(=O)[C@@H](N)CS)C(=O)N[C@@H](CC(=O)O)C(=O)N[C@@H](Cc1c[nH]c2ccccc12)C(=O)N[C@@H](CCCNC(=N)N)C(=O)N[C@@H](CS)C(=O)N[C@@H](CC(=O)O)C(=O)NCC(=O)N[C@@H](Cc1ccccc1)C(=O)N1CCC[C@H]1C(=O)N[C@@H](CC(=O)O)C(=O)N[C@@H](CS)C(=O)N[C@H](C(=O)N[C@@H](CC(=O)O)C(=O)NCC(=O)N[C@@H](CO)C(=O)N[C@@H](CC(=O)O)C(=O)N[C@@H](CCC(=O)O)C(=O)N[C@@H](CCCCN)C(=O)NCC(=O)N[C@@H](CS)C(=O)NCC(=O)NCC(=O)NCC(=O)NCC(=O)O)C(C)C` (H-CPAPYFQCRNDPPCHPMDWRCDGFPDCVDGSDEKGCGGGG-OH): the inhibition entry in assay [1] and in assay [3] was “Active” throughout. Also, the IC50 in assay [2] was 0.8 to 3 nM.

As to `CC[C@H](C)[C@H](NC(=O)[C@H](CS)NC(=O)[C@H](CC(=O)O)NC(=O)[C@@H]1CCCN1C(=O)[C@H](Cc1ccccc1)NC(=O)CNC(=O)[C@H](CC(=O)O)NC(=O)[C@H](CS)NC(=O)[C@H](CCCNC(=N)N)NC(=O)[C@H](Cc1c[nH]c2ccccc12)NC(=O)[C@H](CCC(=O)O)NC(=O)[C@H](CCSC)NC(=O)[C@@H]1CCCN1C(=O)[C@H](Cc1ccc(O)cc1)NC(=O)[C@H](CS)NC(=O)[C@H](Cc1cnc[nH]1)NC(=O)[C@@H]1CCCN1C(=O)[C@H](Cc1cnc[nH]1)NC(=O)[C@H](CC(N)=O)NC(=O)[C@H](CCCNC(=N)N)NC(=O)[C@H](CS)NC(=O)[C@H](CCC(N)=O)NC(=O)[C@H](Cc1ccccc1)NC(=O)[C@H](Cc1ccc(O)cc1)NC(=O)[C@H](CO)NC(=O)[C@@H](NC(=O)[C@@H]1CCCN1C(=O)[C@@H](N)CS)C(C)C)C(=O)N[C@@H](CC(=O)O)C(=O)NCC(=O)N[C@@H](CO)C(=O)N[C@@H](CC(=O)O)C(=O)N[C@@H](CCC(=O)O)C(=O)N[C@@H](CCC(=O)O)C(=O)NCC(=O)N[C@@H](CS)C(=O)NCC(=O)NCC(=O)NCC(=O)NCC(=O)O` (H-CPVSYFQCRNHPHCYPMEWRCDGFPDCIDGSDEEGCGGGG-OH), the inhibition result in assay [1] and in assay [3] was “Active” throughout. Moreover, in assay [2], the half-maximal inhibitory concentration (IC50) lay within 0.8 to 3 nM.

In the case of `CSCC[C@H](NC(=O)[C@@H]1CCCN1C(=O)[C@H](Cc1ccc(O)cc1)NC(=O)[C@H](CS)NC(=O)[C@H](Cc1cnc[nH]1)NC(=O)[C@@H]1CCCN1C(=O)[C@H](Cc1cnc[nH]1)NC(=O)[C@H](Cc1ccc(O)cc1)NC(=O)[C@H](CCCNC(=N)N)NC(=O)[C@H](CS)NC(=O)[C@H](CCCCN)NC(=O)[C@H](Cc1ccccc1)NC(=O)[C@H](Cc1ccc(O)cc1)NC(=O)[C@H](CO)NC(=O)[C@H](C)NC(=O)[C@@H]1CCCN1C(=O)[C@@H](N)CS)C(=O)N[C@@H](CCC(=O)O)C(=O)N[C@@H](Cc1c[nH]c2ccccc12)C(=O)N[C@@H](CCCNC(=N)N)C(=O)N[C@@H](CS)C(=O)N[C@@H](CC(=O)O)C(=O)NCC(=O)N[C@@H](Cc1ccccc1)C(=O)N[C@@H](CO)C(=O)N[C@@H](CC(=O)O)C(=O)N[C@@H](CS)C(=O)N[C@H](C(=O)N[C@@H](CC(=O)O)C(=O)NCC(=O)N[C@@H](CO)C(=O)N[C@@H](CC(=O)O)C(=O)N[C@@H](CCC(=O)O)C(=O)N[C@@H](CCC(=O)O)C(=O)N[C@@H](C)C(=O)N[C@@H](CS)C(=O)NCC(=O)NCC(=O)NCC(=O)NCC(=O)O)C(C)C` (H-CPASYFKCRYHPHCYPMEWRCDGFSDCVDGSDEEACGGGG-OH), the inhibition result in assay [1] and in assay [3] was “Active” in each case. In assay [2], the IC50 was in the range of 0.8 to 3 nM.
